Results reported in patent US20210062178A1, “NOVEL XYLOSE ISOMERASE GENE AND POLYPEPTIDE AND USES THEREOF” (The Regents of the University of California, priority 2019, published 2021).

Tested on: new D-xylose isomerase (XI) 8454_2 from the gut of Odontotaenius disjunctus, SEQ ID NO: 2
Test: Enzymatic activity of xylose isomerase in crude cell extracts, coupled sorbitol dehydrogenase (SDH) assay, NADH depletion at 340 nm
Assay type: biochemical
Description: This clone was then was cultivated in liquid medium containing xylose as the sole carbon source in parallel with an identical clone carrying the same metabolic pathway, but instead expressing a XI from Piromyces sp (opt.PiXI). Opt.PiXI is a codon-optimized version of the XI gene from Piromyces sp.
Specific enzymatic activity was measured using a coupled enzyme (sorbitol dehydrogenase—SDH) that converts the product of XI (xylulose) into xylitol. In this process, for each molecule of xylose converted to xylulose, a molecule of NADH is converted in NAD+. NADH depletion is quantified by spectrophotometry at an optical density of 340 nm, and XI activity is stoichiometrically inferred. For the enzymatic activity, crude cell extracts were prepared using the same conditions for both strains (carrying 8454_2 or opt.PiXI genes) and immediately used.

How did the “isomerization maximal velocity (Vmax) relative to the XI from Piromyces sp.” value (compared with XI from Piromyces sp. (opt.PiXI) under identical biological backgrounds and experimental conditions) turn out when `OC1OC[C@@H](O)[C@H](O)[C@H]1O` (stereo partly drawn) [D-xylose] was run?
Its value is “three times higher”.

What about the Km (new XI, expressed in S. cerevisiae) of the same compound?
Its Km is 19 mM.
